Target: CB1 (rCB1) (Rattus norvegicus, UniProt P20272)
Assay: Single-point radioligand displacement screen
Format: binding
Conditions: for % 1H-CP-55,940 displacement (mean) from single point screen: 10 µM, 1 µM or 300 nM by cell colour (not visible); for rep1_displacement / rep2_displacement / rep3_displacement: Figure 1c source data; for rep1_displacement: replicate 1; for rep2_displacement: replicate 2; for rep3_displacement: replicate 3; for % radioligand displacement [S.D]: single point at 10 µM, three replicates

CB1 (rCB1), sequence (P20272 whole entry): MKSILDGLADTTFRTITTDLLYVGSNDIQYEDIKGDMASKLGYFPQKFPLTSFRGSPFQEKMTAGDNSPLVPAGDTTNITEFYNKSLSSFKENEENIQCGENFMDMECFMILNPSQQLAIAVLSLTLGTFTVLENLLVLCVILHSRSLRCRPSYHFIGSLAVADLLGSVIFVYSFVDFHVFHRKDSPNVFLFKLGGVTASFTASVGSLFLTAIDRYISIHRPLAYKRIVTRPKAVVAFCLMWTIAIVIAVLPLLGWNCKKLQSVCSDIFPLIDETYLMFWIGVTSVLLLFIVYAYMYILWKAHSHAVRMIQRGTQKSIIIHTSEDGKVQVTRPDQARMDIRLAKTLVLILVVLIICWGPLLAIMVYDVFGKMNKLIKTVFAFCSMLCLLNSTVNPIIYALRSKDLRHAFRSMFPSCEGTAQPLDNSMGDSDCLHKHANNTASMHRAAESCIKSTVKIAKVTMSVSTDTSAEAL

| SMILES | % 1H-CP-55,940 displacement (mean) from single point screen | rep1_displacement | rep2_displacement | rep3_displacement | % radioligand displacement [S.D] |
| --- | --- | --- | --- | --- | --- |
| CC1(C)CN(C(=O)c2cn(-c3cccc(C(F)(F)F)c3)nn2)C1c1cccs1 (stereo not shown) [10_20] | 52.38% | – | – | – | – |
| COC(=O)C(NC(=O)c1cc(C)n(-c2cccc(F)c2)n1)c1ccc2c(c1)CCO2 (stereo not shown) [compound 12208] | -5.83% | – | – | – | – |
| Cc1nc(C2CC2)oc1-c1nc(Cc2ccc3c(c2)OCO3)no1 [compound 0682] | -7.41% | – | – | – | – |
| COc1ccc(OC(C)(C)c2nnc(-c3nn(C)c(=O)c4ccccc34)o2)cc1 [compound 9753] | 51.55% | – | – | – | – |
| Cc1cc(C(=O)N2CC3(CCC3)C2C2CCOCC2)nn1-c1cccc(C(F)(F)F)c1 (stereo not shown) [10_19] | 82.61% | – | – | – | – |
| Cc1c(C(=O)OCC2CN(c3ccccc3)C(=O)O2)cnn1Cc1ccccc1 (stereo not shown) [compound 5081] | 31.79% | – | – | – | – |
| O=C(OCc1nc2ccccc2o1)c1cnn(Cc2ccccc2Cl)c1 [compound 3652] | 32.00% | – | – | – | – |
| Cn1nc(-c2nnc(C(C)(C)Oc3ccc(C#N)cc3)o2)c2ccccc2c1=O [0450_23] | -19.18% | – | – | – | – |
| C=CCn1c(SC(C)COC)nc2cc(-c3ccccc3)sc2c1=O (stereo not shown) [compound 50746] | 26.93% | 27.8 | 26.8 | 26.1 | – |
| O=c1ccc(-c2nc(C(F)(F)c3ccc(F)cc3)no2)nn1-c1ccc(F)cc1 [‘2443] | 51.06% | 53.4 | 54.3 | 45.5 | 51.1% [4.87] |
| COC(=O)[C@@H](NC(=O)c1cc(C)n(-c2cccc(F)c2)n1)c1ccc(OC)cc1 [compound 59513] | 10.54% | – | – | – | – |
| Cc1cc(C(=O)Nc2ccnn2-c2cccc(Cl)c2)nn1[C@H](C)C1CC1 [‘7902] | 57.08% | 57 | 57.3 | 57 | 57.1% [0.02] |
| CCCCc1nc(C)c(Cc2nc(Cc3ccc4c(c3)OCO4)no2)s1 [7019_27] | 45.01% | – | – | – | – |
| CCOC(=O)CCC(OC(=O)c1nc(C)n(-c2ccccc2)n1)c1ccccc1 (stereo not shown) [compound 11070] | 34.00% | 33.8 | 28.7 | 39.6 | – |
| COC(=O)C(NC(=O)c1cn(Cc2ccccc2)nn1)c1cccs1 (stereo not shown) [compound 54064] | 4.29% | – | – | – | – |
| c1ccc(-c2nc(C3CC3)sc2-c2nnc(-c3ccc4c(c3)OCO4)o2)cc1 [7019_32] | 39.89% | – | – | – | – |
| CCOC(=O)C1CN(C(=O)c2cc(C)n(-c3cccc(C(F)(F)F)c3)n2)CC12CC2 (stereo not shown) [10_21] | 83.57% | – | – | – | – |
| Cc1cc(C(=O)NC(c2cccs2)C(C)(C)CO)nn1-c1cccc(Cl)c1 (stereo not shown) [compound 78220] | 5.56% | – | – | – | – |
| Cc1c(C(=O)N(C)CC2COc3ccccc3O2)cnn1-c1ccccc1 (stereo not shown) [compound 4148] | 11.41% | – | – | – | – |
| COC(=O)CC(NC(=O)c1cc(C)n(-c2ccc(OC)cc2)n1)c1cccs1 (stereo not shown) [compound 90711] | 7.24% | – | – | – | – |
| O=C(CCc1ccccc1)c1cn(C2(c3ccc(F)cc3)CCOCC2)nn1 [‘7337] | 56.96% | 60.4 | 55.9 | 54.6 | 57.0% [3.04] |
| CN(CCOc1ccc(Br)cc1)c1ncnc(-c2ccccc2)n1 [compound 55901] | 23.61% | 24.5 | 26.2 | 20.1 | – |
| N#CCCn1ncc(C(=O)N2CCC(F)(c3cc(F)cc(F)c3)C2)c1-c1ccccc1 (stereo not shown) [compound 34734] | 15.43% | 21.6 | 10.3 | 14.4 | – |
| Cc1cc(C(=O)NC(c2ccccc2)c2ccco2)nn1-c1cccc(F)c1 (stereo not shown) [compound 88684] | 39.72% | – | – | – | – |
| Cc1cc(C(=O)NC(c2ccc(Cl)cc2)c2ccn(C)n2)nn1-c1cccc(F)c1 (stereo not shown) [compound 17429] | 23.12% | – | – | – | – |
| Cc1nn(Cc2ccccc2Cl)c(C)c1C(=O)OCC1CSc2ccccc2O1 (stereo not shown) [7800_28] | 55.46% | – | – | – | – |
| O=C(Nc1cccc2ccsc12)c1ccn(-c2cccc(F)c2)n1 [1486_22] | -3.59% | – | – | – | – |
| C[C@@H](COC(=O)c1nn(C)c(=O)c2ccccc12)Oc1ccc(Cl)cc1 [0450_14] | 28.77% | – | – | – | – |

— paper PMC11882969 (Nature Communications, 2025)
